# How the values were obtained:
# [1] = tested on: Npc1^−/− Chinese Hamster Ovary (CHO) cells; assay: Sphingosine, total GSL and cholesterol content in NPC1 null CHO cells; assay type: cell-based; conditions: 1 mM, 72 hours
# Protocol: Wild type and NPC1 null Chinese Hamster Ovary (CHO) cells were kindly provided by Chris Wassif (NIH).
# (§1) ADLL and enantiomers (ADLL: Molekula #73891210, ALL: Sigma Aldrich #441511, ADL: Sigma #A0876) were administered as dry admix in powdered mouse diet (PicoLab Rodent Diet 20/5053, LabDiet) at a dose of 0.1 g/kg/day for in vivo studies. Treatment groups for in vivo study consisted of at least 5 mice per group. In vitro studies were conducted with each compound dissolved in PBS to generate a 50 mM stock solution and diluted to a 1 mM working concentration in media (DMEM High Glucose-Gibco #10566016).
# (§2) Sphingoid Base Measurements: Sphingoid bases (sphingosine and sphinganine) were extracted from 100 uL tissue homogenates in 500 uL of chloroform:methanol (1:2v/v) followed by sonication for 10 minutes at room temperature. Subsequently, 1 M 500-uL sodium chloride, 500 uL chloroform, and 3 M 100 uL sodium hydroxide were added to the samples, and vortexed every five minutes for 15 minutes at room temperature. Homogenates were centrifuged (13,000 g for 10 minutes) and the lower organic phase retained. Sphingoid bases were purified from the samples by pre-equilibrating SPA-NH2 columns with 2×1 mL chloroform followed by sample elution with 3×300 ul acetone. The samples were dried under nitrogen. Lipids were resuspended in 50 uL pre-warmed ethanol (37° C.) and 50 uL OPA labelling solution (1 mg OPA/20 uL Ethanol/1 uL 2-mercaptoethanol; dilution 1:2000 in 3% boric acid pH 10.5) was added. Samples were kept at room temperature in the dark for 20 minutes and vortexed every 10 minutes. Samples were buffered with 100 uL methanol: 5 mM Tris pH 7 (9:1) and centrifuged at 5,000 g for 2 minutes. Supernatants (150 uL) were loaded onto a reverse phase HPLC. Chromatography was carried out using a mobile phase of 85% acetonitrile/15% H2O at a flow rate of 1.0 ml/min. The orthophthaldehyde-labelled derivatives were monitored at an excitation wavelength of 340 nm and an emission wavelength of 450 nm. Quantification of trace peak area was carried out using EZChrom Elite software v3.2.1.
# (§3) Glycosphingolipid measurements: Glycosphingolipids were extracted and measured by NP-HPLC according to published methods. Tissue homogenates in chloroform/methanol (C:M) (1:2 v/v) overnight at 4° C. The mixture was centrifuged (3000 rpm/10 min) and 1 mL chloroform and 1 mL PBS were added to the supernatant and centrifuged (3000 rpm/10 min). The lower phase was dried under N2, resuspended in 50 uL C:M 1:3 v/v and combined with the upper phase. Subsequently, GSLs were recovered using C18 Isolute columns (100 mg) (Biotage) pre-equilibrated with 4×1 mL MeOH and 2×1 mL H2O. Samples were washed 3×1 mL H2O and eluted with 1 mL C:M 98:2, 2×1 mL C:M 1:3, 1 mL MeOH. The column eluate was dried under N2, resuspended in 100 uL C:M 2:1, dried again under N2 and resuspended in ceramide glycanase (CGase) buffer (50 mM sodium acetate pH 5.5, 1 mg/mL sodium taurodeoxycholate). 50 mU CGase was added, and samples incubated at 37° C. overnight. Released oligosaccharides were anthranilic acid (2-AA) labelled and purified by mixing with 1 mL Acetonitrile: H2O 97:3 and added to Discovery DPA-6S columns (SUPELCO, # 52625-U) pre-equilibrated with 1 mL acetonitrile, 2×1 mL H2O, and 2×1 mL acetonitrile. Columns were washed with 2×1 mL Acetonitrile: H2O 95:5 v/v, and eluted in 2×0.75 mL H2O. Samples were loaded 30:70 H2O: MeCN (v/v) for normal phase HPLC. Solvent A was acetonitrile, solvent B was H2O, and solvent C was 100 mM NH4OH (pH 3.85) in H2O. Separation was carried out at 30° C. using Waters Alliance 2695 separation module, excitation 360, emission 425 using Waters 2475 Fluorescence detector.
# Cholesterol measurements: Cholesterol was measured with the Amplex Red kit (Molecular Probes) according to the manufacturer's instructions. Briefly, cell and tissue homogenates in 100 uL mQ water were Folch extracted and dried down under nitrogen. […]
# [2] = tested on: Npc1^−/− mice; assay: Lipid storage (GSLs, sphingoid bases, cholesterol) in liver of Npc1−/− mice; assay type: in vivo, mouse; set-up: reduction of liver GSL levels (total) / reduction of GM2Gc in liver / reduction of sphingosine in liver / reduction of sphinganine in liver / reduction of GM3Gc in liver: concentration or dose not given beside the values; conditions: 59 days of age
# Protocol: as §1
# (§4) Biochemical and immunohistochemical analyses. Mice were saline perfused under terminal anaesthesia. Tissues for biochemical analysis were snap-frozen on ice-cold isopentane. For immunofluorescent staining, tissues were perfused with 4% PFA followed by PBS and kept in 4% PFA for 24h and stored in PBS containing 20% sucrose longer term. Brains were cut parasagitally (20 micron sections) and stored in 30% ethylene glycol, 30% glycerol 0.1 M sodium phosphate buffer (pH 7.4) at −20° C. Biochemical analysis was performed on water-homogenised tissues (50 mg/ml) and protein content was determined using a BCA protein assay (Thermo Fisher #23227) according to the manufacturer's instructions.
# as §2
# as §3, with “Samples were loaded 30:70 H2O: MeCN (v/v) for normal phase HPLC. Solvent A was acetonitrile, solvent B was H2O, and solvent C was 100 mM NH4OH (pH 3.85) in H2O. Separation was carried out at 30° C. using Waters Alliance 2695 separation module, excitation 360, emission 425 using Waters 2475 Fluorescence detector.” left out
# [3] = tested on: Npc1^−/− mice; assay: Lipid storage (GSLs, sphingoid bases) in forebrain and cerebellum of Npc1−/− mice; assay type: in vivo, mouse; set-up: concentration or dose not given beside the values; conditions: Npc1−/− mice treated from 3 weeks, 59 days of age
# Protocol: as §1, §4, §2
# as §3, with “Samples were loaded 30:70 H2O: MeCN (v/v) for normal phase HPLC. Solvent A was acetonitrile, solvent B was H2O, and solvent C was 100 mM NH4OH (pH 3.85) in H2O. Separation was carried out at 30° C. using Waters Alliance 2695 separation module, excitation 360, emission 425 using Waters 2475 Fluorescence detector.” left out
Compound,reduction of cholesterol content [1],reduction of sphingosine levels [1],reduction of total GSL levels [1],decrease of total free cholesterol in liver [2],reduction of sphinganine in liver [2],reduction of sphingosine in liver [2],reduction of GM2Gc in liver ([2]; vs untreated Npc1−/−),reduction of GM3Gc in liver ([2]; vs untreated Npc1−/−),reduction of liver GSL levels (total) ([2]; vs untreated Npc1−/−),reduction of GA1 in cerebellum [3],reduction of GA2 in cerebellum [3],reduction of GM1a in forebrain [3],reduction of GM2 in forebrain [3],reduction of sphinganine levels in forebrain [3],reduction of sphinganine in cerebellum [3]
"CC(=O)N[C@@H](CC(C)C)C(=O)O [ALL, N-acetyl-L-leucine]",13%,29%,25%,23.4%,37.4%,33.2%,45%,54.8%,45.6%,23.5%,23.8%,20.1%,19.6%,,
"CC(=O)NC(CC(C)C)C(=O)O (racemic) [ADLL, N-acetyl-DL-leucine]",18%,22%,26%,18.2%,32.5%,29.5%,26.7%,,26.9%,,21.3%,,,13.5%,
"CC(=O)N[C@H](CC(C)C)C(=O)O [ADL, N-acetyl-D-leucine]",14%,14%,22%,16.2%,38.5%,33.6%,29%,,26.9%,,,,,18.2%,42.3%

# Source: US12697316B2, “Combination therapy with acetyl-leucine and miglustat” (INTRABIO LTD., priority 2019, dated 2026)
